# Experimental data: patent US20150105252A1, “SUBSTITUTED PYRAZOLES AS HERBICIDES” (E I DU PONT DE NEMOURS AND COMPANY, priority 2013, published 2015)
# Key:
# pigweed [1] = test: Test A preemergence; format: in vivo, Amaranthus retroflexus; conditions: preemergence; for Pigweed plant response rating (0 to 100 scale): 125 g ai/ha, visual injury approx. 10 days after treatment; for Pigweed plant response rating: 500 g ai/ha, visual injury after approx. 10 days, 0 to 100 scale (0 no effect, 100 complete control)
# In short: (§1)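 Scoring was visual, on a scale where 100 means complete control and 0 means no effect, comparing treated with untreated plants around 10 days post-application. Compounds in surfactant-containing non-phytotoxic solvent were sprayed onto soil preemergence or onto one- to two-leaf seedlings (2–10 cm) postemergence.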
# ducksalad = test: Test B flood; format: in vivo, Heteranthera limosa; conditions: 250 g ai/ha, visual rating on 0 to 100 scale (0 no effect, 100 complete control), 13 to 15 days
# In short: (§2)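 Visual ratings (0 = no effect, 100 = complete control) versus untreated controls were taken 13–15 days after treatment of greenhouse plants. Treatment was added to paddy water held at 3 cm depth on 2-leaf-stage seedlings.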
# sedge, umbrella = test: Test B flood; format: in vivo, Cyperus difformis; conditions: 250 g ai/ha, visual rating on 0 to 100 scale (0 no effect, 100 complete control), 13 to 15 days
# In short: as §2
# crabgrass, large [2] = test: Test A preemergence; format: in vivo, Digitaria sanguinalis; conditions: preemergence; for Crabgrass, Large plant response rating (0 to 100 scale): 125 g ai/ha, visual injury approx. 10 days after treatment; for Crabgrass, Large plant response rating: 500 g ai/ha, visual injury after approx. 10 days, 0 to 100 scale (0 no effect, 100 complete control)
# In short: as §1
# wheat [3] = test: Test A postemergence; format: in vivo, Triticum aestivum
# In short: as §1
# rice = test: Test B flood; format: in vivo, Oryza sativa; conditions: 250 g ai/ha, visual rating on 0 to 100 scale (0 no effect, 100 complete control), 13 to 15 days
# In short: as §2
# foxtail, giant [4] = test: Test A preemergence; format: in vivo, Setaria faberii; conditions: preemergence; for Foxtail, Giant plant response rating (0 to 100 scale): 125 g ai/ha, visual injury approx. 10 days after treatment; for Foxtail, Giant plant response rating: 500 g ai/ha, visual injury after approx. 10 days, 0 to 100 scale (0 no effect, 100 complete control)
# In short: as §1
# pigweed [5] = test: Test A postemergence; format: in vivo, Amaranthus retroflexus
# In short: as §1
# morningglory [6] = test: Test A postemergence; format: in vivo, Ipomoea spp.
# In short: as §1
# morningglory [7] = test: Test A preemergence; format: in vivo, Ipomoea spp.; conditions: preemergence; for Morningglory plant response rating (0 to 100 scale): 125 g ai/ha, visual injury approx. 10 days after treatment; for Morningglory plant response rating: 500 g ai/ha, visual injury after approx. 10 days, 0 to 100 scale (0 no effect, 100 complete control)
# In short: as §1
# corn [8] = test: Test A preemergence; format: in vivo, Zea mays; conditions: preemergence; for Corn plant response rating (0 to 100 scale): 125 g ai/ha, visual injury approx. 10 days after treatment; for Corn plant response rating: 500 g ai/ha, visual injury after approx. 10 days, 0 to 100 scale (0 no effect, 100 complete control)
# In short: as §1
# barnyardgrass [9] = test: Test A postemergence; format: in vivo, Echinochloa crus-galli
# In short: as §1
# crabgrass, large [10] = test: Test A postemergence; format: in vivo, Digitaria sanguinalis
# In short: as §1
# barnyardgrass [11] = test: Test B flood; format: in vivo, Echinochloa crus-galli; conditions: 250 g ai/ha, visual rating on 0 to 100 scale (0 no effect, 100 complete control), 13 to 15 days
# In short: as §2
# velvetleaf [12] = test: Test A postemergence; format: in vivo, Abutilon theophrasti
# In short: as §1
# foxtail, giant [13] = test: Test A postemergence; format: in vivo, Setaria faberii
# In short: as §1
# corn [14] = test: Test A postemergence; format: in vivo, Zea mays
# In short: as §1
# velvetleaf [15] = test: Test A preemergence; format: in vivo, Abutilon theophrasti; conditions: preemergence; for Velvetleaf plant response rating (0 to 100 scale): 125 g ai/ha, visual injury approx. 10 days after treatment; for Velvetleaf plant response rating: 500 g ai/ha, visual injury after approx. 10 days, 0 to 100 scale (0 no effect, 100 complete control)
# In short: as §1
# wheat [16] = test: Test A preemergence; format: in vivo, Triticum aestivum; conditions: preemergence; for Wheat plant response rating (0 to 100 scale): 125 g ai/ha, visual injury approx. 10 days after treatment; for Wheat plant response rating: 500 g ai/ha, visual injury after approx. 10 days, 0 to 100 scale (0 no effect, 100 complete control)
# In short: as §1
# barnyardgrass [17] = test: Test A preemergence; format: in vivo, Echinochloa crus-galli; conditions: preemergence
# In short: as §1
# [18] = Postemergence, 500 g ai/ha, 0 to 100 scale (0 no effect, 100 complete control)
# [19] = postemergence, 125 g ai/ha, about 10 days, visual rating on 0 to 100 scale (0 no effect, 100 complete control)
# [20] = 125 g ai/ha, visual injury, 0 to 100 scale, approx. 10 days
# [21] = 500 g ai/ha, visual injury after approx. 10 days, 0 to 100 scale (0 no effect, 100 complete control)
Compound,Pigweed plant response rating (0 to 100 scale) (pigweed [1]),Pigweed plant response rating (pigweed [1]),"Plant response rating, Ducksalad (ducksalad)","Plant response rating, Sedge, Umbrella (sedge, umbrella)","Crabgrass, Large plant response rating (0 to 100 scale) (crabgrass, large [2])","Crabgrass, Large plant response rating (crabgrass, large [2])",Wheat plant response rating (wheat [3]; [18]),Wheat plant response rating (wheat [3]; [19]),"Plant response rating, Rice (rice)","Foxtail, Giant plant response rating (0 to 100 scale) (foxtail, giant [4])","Foxtail, Giant plant response rating (foxtail, giant [4])",Pigweed plant response rating (pigweed [5]; [18]),Pigweed plant response rating (pigweed [5]; [19]),Morningglory plant response rating (morningglory [6]; [18]),Morningglory plant response rating (morningglory [6]; [19]),Morningglory plant response rating (0 to 100 scale) (morningglory [7]),Morningglory plant response rating (morningglory [7]),Corn plant response rating (0 to 100 scale) (corn [8]),Barnyardgrass plant response rating (barnyardgrass [9]; [18]),Barnyardgrass plant response rating (barnyardgrass [9]; [19]),also measured
CCc1cc(C(=O)NCC(F)(F)F)nn1Cc1nnc(C(F)(F)F)o1 [Compound 146],100,100,0,0,80,100,0,0,0,10,90,90,60,80,20,20,100,0,10,0,"Crabgrass, Large plant response rating (crabgrass, large [10]; [18]): 80; Crabgrass, Large plant response rating (crabgrass, large [10]; [19]): 10; Plant response rating, Barnyardgrass (barnyardgrass [11]): 0; Velvetleaf plant response rating (velvetleaf [12]; [18]): 20; Velvetleaf plant response rating (velvetleaf [12]; [19]): 10; Foxtail, Giant plant response rating (foxtail, giant [13]; [18]): 20; Foxtail, Giant plant response rating (foxtail, giant [13]; [19]): 0; Corn plant response rating (corn [14]; [18]): 0; Corn plant response rating (corn [14]; [19]): 0; Velvetleaf plant response rating (0 to 100 scale) (velvetleaf [15]): 10; Velvetleaf plant response rating (velvetleaf [15]): 60; Wheat plant response rating (0 to 100 scale) (wheat [16]): 0; Wheat plant response rating (wheat [16]): 10; Barnyardgrass plant response rating (barnyardgrass [17]; [20]): 0; Barnyardgrass plant response rating (barnyardgrass [17]; [21]): 90"
CCCCc1cc(C(=O)NCC(F)(F)F)nn1Cc1ccnc(C(F)(F)F)c1 [Compound 148],100,100,30,40,50,100,20,0,15,10,90,100,90,90,80,0,30,0,40,10,"Corn plant response rating (corn [8]): 0; Crabgrass, Large plant response rating (crabgrass, large [10]; [18]): 50; Crabgrass, Large plant response rating (crabgrass, large [10]; [19]): 20; Plant response rating, Barnyardgrass (barnyardgrass [11]): 0; Velvetleaf plant response rating (velvetleaf [12]; [18]): 60; Velvetleaf plant response rating (velvetleaf [12]; [19]): 20; Foxtail, Giant plant response rating (foxtail, giant [13]; [18]): 40; Foxtail, Giant plant response rating (foxtail, giant [13]; [19]): 10; Corn plant response rating (corn [14]; [18]): 40; Corn plant response rating (corn [14]; [19]): 10; Velvetleaf plant response rating (0 to 100 scale) (velvetleaf [15]): 0; Velvetleaf plant response rating (velvetleaf [15]): 20; Wheat plant response rating (0 to 100 scale) (wheat [16]): 0; Wheat plant response rating (wheat [16]): 0; Barnyardgrass plant response rating (barnyardgrass [17]; [20]): 10; Barnyardgrass plant response rating (barnyardgrass [17]; [21]): 40"
CCCc1cc(C(=O)Nc2ccc(F)cc2)nn1Cc1cc(C(F)(F)F)nn1C [Compound 150],50,100,0,65,0,20,0,0,15,0,20,80,30,30,30,0,0,0,20,0,"Corn plant response rating (corn [8]): 0; Crabgrass, Large plant response rating (crabgrass, large [10]; [18]): 10; Crabgrass, Large plant response rating (crabgrass, large [10]; [19]): 10; Plant response rating, Barnyardgrass (barnyardgrass [11]): 0; Velvetleaf plant response rating (velvetleaf [12]; [18]): 10; Velvetleaf plant response rating (velvetleaf [12]; [19]): 10; Foxtail, Giant plant response rating (foxtail, giant [13]; [18]): 10; Foxtail, Giant plant response rating (foxtail, giant [13]; [19]): 0; Corn plant response rating (corn [14]; [18]): 10; Corn plant response rating (corn [14]; [19]): 0; Velvetleaf plant response rating (0 to 100 scale) (velvetleaf [15]): 0; Velvetleaf plant response rating (velvetleaf [15]): 0; Wheat plant response rating (0 to 100 scale) (wheat [16]): 0; Wheat plant response rating (wheat [16]): 0; Barnyardgrass plant response rating (barnyardgrass [17]; [20]): 0; Barnyardgrass plant response rating (barnyardgrass [17]; [21]): 0"
CCCCc1cc(C(=O)NC2CC2)nn1Cc1ccnc(C(F)(F)F)c1 [Compound 151],70,100,0,60,80,100,10,0,0,50,100,100,70,90,50,0,30,0,50,10,"Corn plant response rating (corn [8]): 0; Crabgrass, Large plant response rating (crabgrass, large [10]; [18]): 80; Crabgrass, Large plant response rating (crabgrass, large [10]; [19]): 30; Plant response rating, Barnyardgrass (barnyardgrass [11]): 0; Velvetleaf plant response rating (velvetleaf [12]; [18]): 60; Velvetleaf plant response rating (velvetleaf [12]; [19]): 30; Foxtail, Giant plant response rating (foxtail, giant [13]; [18]): 70; Foxtail, Giant plant response rating (foxtail, giant [13]; [19]): 20; Corn plant response rating (corn [14]; [18]): 50; Corn plant response rating (corn [14]; [19]): 10; Velvetleaf plant response rating (0 to 100 scale) (velvetleaf [15]): 0; Velvetleaf plant response rating (velvetleaf [15]): 70; Wheat plant response rating (0 to 100 scale) (wheat [16]): 0; Wheat plant response rating (wheat [16]): 10; Barnyardgrass plant response rating (barnyardgrass [17]; [20]): 0; Barnyardgrass plant response rating (barnyardgrass [17]; [21]): 60"
O=C(NC1CC1)c1cc(Br)n(Cc2cccc(C(F)(F)F)c2)n1 [Compound 160],50,90,0,0,50,90,0,0,0,0,60,80,50,20,0,0,0,0,30,0,"Corn plant response rating (corn [8]): 0; Crabgrass, Large plant response rating (crabgrass, large [10]; [18]): 40; Crabgrass, Large plant response rating (crabgrass, large [10]; [19]): 20; Plant response rating, Barnyardgrass (barnyardgrass [11]): 0; Velvetleaf plant response rating (velvetleaf [12]; [18]): 60; Velvetleaf plant response rating (velvetleaf [12]; [19]): 30; Foxtail, Giant plant response rating (foxtail, giant [13]; [18]): 30; Foxtail, Giant plant response rating (foxtail, giant [13]; [19]): 20; Corn plant response rating (corn [14]; [18]): 20; Corn plant response rating (corn [14]; [19]): 0; Velvetleaf plant response rating (0 to 100 scale) (velvetleaf [15]): 0; Velvetleaf plant response rating (velvetleaf [15]): 10; Wheat plant response rating (0 to 100 scale) (wheat [16]): 0; Wheat plant response rating (wheat [16]): 0; Barnyardgrass plant response rating (barnyardgrass [17]; [20]): 0; Barnyardgrass plant response rating (barnyardgrass [17]; [21]): 10"
